# Measurements: patent US20110117165A1, “IMPLANTABLE BONE GRAFT MATERIALS” (AFFINERGY, INC., priority 2009, published 2011)
# Ends that are not written are not given here. MP = mini-PEG unit; Mpa = O=C(O)CCS
# T1: BMP-5 (Homo sapiens, UniProt P22003)
# T1 sequence (P22003 317-454): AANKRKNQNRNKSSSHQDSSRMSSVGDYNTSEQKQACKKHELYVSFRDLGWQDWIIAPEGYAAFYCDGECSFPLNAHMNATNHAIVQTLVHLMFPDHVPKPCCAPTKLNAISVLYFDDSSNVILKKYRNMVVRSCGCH
# T2: BMP-6 (Homo sapiens, UniProt P22004)
# T2 sequence (P22004 375-513): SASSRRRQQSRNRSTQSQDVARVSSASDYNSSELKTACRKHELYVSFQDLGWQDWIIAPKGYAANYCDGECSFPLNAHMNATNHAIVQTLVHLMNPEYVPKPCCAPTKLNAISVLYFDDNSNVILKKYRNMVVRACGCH
# T3: GDF-7 (BMP-12) (Homo sapiens, UniProt Q7Z4P5)
# T3 sequence (Q7Z4P5 322-450): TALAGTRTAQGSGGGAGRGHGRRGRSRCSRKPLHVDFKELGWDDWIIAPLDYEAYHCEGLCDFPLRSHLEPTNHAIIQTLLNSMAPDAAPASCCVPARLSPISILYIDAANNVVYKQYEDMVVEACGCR
# T4: BMP-2 (Homo sapiens, UniProt P12643)
# T4 sequence (P12643 283-396): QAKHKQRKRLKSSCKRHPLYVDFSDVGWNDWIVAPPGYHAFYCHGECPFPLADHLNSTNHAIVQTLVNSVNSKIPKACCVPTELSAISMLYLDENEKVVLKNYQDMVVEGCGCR
# T5: BMP-7 (Homo sapiens, UniProt P18075)
# T5 sequence (P18075 293-431): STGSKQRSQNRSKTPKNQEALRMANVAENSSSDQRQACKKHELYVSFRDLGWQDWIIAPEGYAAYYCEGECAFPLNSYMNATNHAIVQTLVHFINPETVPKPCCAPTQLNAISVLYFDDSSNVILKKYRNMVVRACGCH
# B1: BMP binding peptide SEQ ID NO: 1 (peptide)
# peptide: GGGAWEAFSSLSGSRV
# modifications: also: biotinylated, position not given here
# notes: Synthetic peptide found by phage display on immobilized BMP-2; also called P9
# B2: BMP binding peptide SEQ ID NO: 7 (peptide)
# peptide: SSVAEWALRSWEGMRVGEASR
# modifications: also: biotinylated for plate assay, position not given here
# notes: Found by phage display on immobilized GDF-7; also called P13
# B3: BMP binding peptide SEQ ID NO: 1 containing a free thiol group, covalently attached to HELISTAT collagen (peptide)
# peptide: GGGAWEAFSSLSGSRV
# modifications: also: free thiol group added, position and spacer not given here, attached to collagen through a disulfide
# notes: also called Peptide2; Peptide 2
# B4: BMP binding peptide SEQ ID NO: 5 (peptide)
# peptide: SSGPREIWDSLVGVVNPGWSR
# modifications: also: biotinylated, position not given here
# notes: Found by phage display on immobilized GDF-7; also called P11
# B5: BMP binding peptide SEQ ID NO: 2 (peptide)
# peptide: GGALGFPLKGEVVEGWA
# modifications: also: biotinylated, position not given here
# notes: Synthetic peptide found by phage display on immobilized BMP-2; also called P10
# B6: BMP binding peptide SEQ ID NO: 6 (peptide)
# peptide: SSGGVGGWALFETLRGKEVSR
# modifications: also: biotinylated for plate assay, position not given here
# notes: Found by phage display on immobilized GDF-7; also called P12
# Assays:
# BMP-5 = target: T1, BMP-5; assay: Binding of immobilized BMP binding peptides to BMP-5 (ELISA); details: BMP at 100 nM and 10 nM
# Description: (§1) BMP binding peptides SEQ ID NOs:1-4 & 8-10 were identified as described in US Patent Application Publication No. US20060051395A1. Briefly, the peptides were identified by phage display using immobilized BMP-2 as a substrate for the phage library selections. Synthetic peptides SEQ ID NOs: 1-2 were determined to bind to BMP-2 with a relative EC50 value of 0.8 nM and 0.9 nM, respectively (data not shown). Separately, the relative binding affinity of peptides SEQ ID NOs: 1-2 for BMP-2 is shown in FIG. 14A (SEQ ID NO: 1 is denoted as P9 and SEQ ID NO: 2 is denoted as P10). Briefly, the results shown in FIG. 14A were generated by immobilizing biotinylated BMP binding peptides SEQ ID NOs:1 & 2 on streptavidin coated plates. Serial dilutions of 200 nM, 20 nM and 2 nM of BMP-2 were incubated with the immobilized BMP binding peptides for 45 minutes, washed, and bound BMP quantified using ELISA.
# (§2) BMP binding peptides SEQ ID NOs: 5-7 were identified as described in US Patent Application Publication No. US20090098175A1. Briefly, the peptides were identified by phage display using immobilized GDF-7 (GDF-7 is BMP-12) as a substrate for the phage library selections. […] The data shown in FIG. 14C were collected similarly to that described above for FIGS. 14A-14B except that the serial dilutions of BMP were 100 nM and 10 nM.
# BMP-6 = target: T2, BMP-6; assay: Binding of immobilized BMP binding peptides to BMP-6 (ELISA); details: BMP at 100 nM and 10 nM
# Description: as §1, §2
# GDF-7 (BMP-12) = target: T3, GDF-7 (BMP-12); assay: Binding to GDF-7 (phage display selection substrate)
# Description: as §2
# BMP-2 [1] = target: T4, BMP-2; assay: Binding of immobilized biotinylated BMP binding peptides to BMP-2 (ELISA); details: BMP-2 at 200, 20 and 2 nM, 45 minutes
# Description: as §1
# BMP-7 = target: T5, BMP-7; assay: Binding of immobilized BMP binding peptides to BMP-7 (ELISA)
# C2C12 cells = assay: Alkaline phosphatase secretion by C2C12 cells in response to BMP-2; type: cell-based; details: peptide 0-3500 nM, 3 days
# Description: In an experiment to test the biological activity of BMP-2 delivered by BMP binding peptide, alkaline phosphatase secreted by C2C12 cells in response to BMP-2 was measured in the presence and absence of BMP binding peptide in solution. C2C12 cells were incubated with BMP-2 (35 nM) and BMP binding peptide at a concentration ranging from 0-3500 nM. The C2C12 cells were incubated with the BMP-2 and BMP binding peptide for 3 days and the alkaline phosphatase assay was performed as described herein above.
# BMP-2 [2] = target: T6, BMP-2 (UniProt P12643 283-396); assay: relative EC50 of synthetic peptide on BMP-2; format not described, data not shown
# T6 construct: also called bone morphogenic protein 2
# BMP-2 [3] = target: T6, BMP-2; assay: relative EC50 of peptide on BMP-2; format not described, data not shown
# BMP-2 [4] = target: T6, BMP-2; assay: collagenase digest of sponge after 24 h in plasma, ELISA; data not shown
# Description: The BMP binding peptide-modified […] collagen sponges generated in Example 2 were evaluated for ability to bind and retain BMP-2. […] The amount of BMP-2 released into the plasma at each time-point was measured by ELISA (QUANTIKINE, R&D SYSTEMS), and the amount retained on the sponge after 24 h was estimated by Western blot analysis. […] After 24 h, the sponges were digested by collagenase, and the amount of BMP-2 retained on the sponges was quantified by ELISA.
molecule,measurement,setting,value
SSGGVGGWALFETLRGKEVSR [SEQ ID NO: 6],binding to BMP-5 (FIG. 14C),BMP-5,bind
same,binding to BMP-6 (FIG. 14C),BMP-6,bind
same,binding to GDF-7,GDF-7 (BMP-12),binding GDF-7
GGALGFPLKGEVVEGWA-NH2 (C-terminus assumed) [SEQ ID NO: 2],relative binding affinity for BMP-2 (FIG. 14A),BMP-2 [1],high relative affinity
same,relative binding affinity for BMP-7 (FIG. 14B),BMP-7,high relative affinity
same,binding to BMP-5 (FIG. 14C),BMP-5,bind
same,binding to BMP-6 (FIG. 14C),BMP-6,bind
same,effect on BMP-2 biological activity (alkaline phosphatase secretion),C2C12 cells; BMP-2 35 nM,does not interfere with the biological activity of BMP-2
same,BMP-2 activity of the peptide on its own,C2C12 cells,does not have BMP-2 activity on its own
SSGPREIWDSLVGVVNPGWSR [SEQ ID NO: 5],binding to BMP-5 (FIG. 14C),BMP-5,bind
same,binding to BMP-6 (FIG. 14C),BMP-6,bind
same,binding to GDF-7,GDF-7 (BMP-12),binding GDF-7
GGGAWEAFSSLSGSRV [SEQ ID NO: 1],relative binding affinity for BMP-2 (FIG. 14A),BMP-2 [1],high relative affinity
same,relative binding affinity for BMP-7 (FIG. 14B),BMP-7,high relative affinity
same,binding to BMP-5 (FIG. 14C),BMP-5,bind
same,binding to BMP-6 (FIG. 14C),BMP-6,bind
SSVAEWALRSWEGMRVGEASR [SEQ ID NO: 7],binding to BMP-5 (FIG. 14C),BMP-5,bind
same,binding to BMP-6 (FIG. 14C),BMP-6,bind
same,binding to GDF-7,GDF-7 (BMP-12),binding GDF-7
B1,EC50,BMP-2 [2],0.8 nM
B2,EC50,BMP-2 [3],1.1 nM
B3,fold BMP-2 retained against unmodified sponge after 24 h,BMP-2 [4],> 40 fold
B4,EC50,BMP-2 [3],2 nM
B5,EC50,BMP-2 [2],0.9 nM
B6,EC50,BMP-2 [3],1.8 nM
"{Mpa-MP-MP}-GGALGFPLKGEVVEGWA-NH2 (also: attached to collagen through a disulfide, also called Peptide1) [HS-Propionyl-MP-MP-(SEQ ID NO: 2)-amide, covalently attached to collagen]",fold BMP-2 retained against unmodified sponge after 24 h,BMP-2 [4],> 40 fold
